Converted amounts (≈) assume the structure as drawn. “And” between values parts separate entries of the source, which are not always exact repeats. Identical values can stand only once. Like-named read-outs stand apart in the source and are kept apart here.
Assays:
[1] = tested on: WT S. aureus (ATCC 29213, WT); experiment: microbe, parasite or virus in culture; assay type: cell-based; conditions: for MIC against S. aureus 29213: ATCC 29213; for MIC: Staphylococcus aureus
[2] = tested on: FQR S. aureus (NRS3, FQR); experiment: MIC, microdilution broth assay, FQR MRSA NRS3; assay type: cell-based; conditions: for MIC: Staphylococcus aureus
MRSA clinical isolates = experiment: microbe, parasite or virus in culture; assay type: cell-based, S. aureus; conditions: Staphylococcus aureus, MRSA, read-out: MIC
Description: MRSA and P. aeruginosa isolates were from Cubist Pharmaceuticals (Lexington, MA). VRE isolates were from a previously published collection. E. coli strains were obtained either from ATCC or Professor Cari Vanderpool (UIUC). A. baumannii isolates were obtained from Dr John Quale[51].
Susceptibility testing was performed in triplicate, using the microdilution broth method as outlined by the Clinical and Laboratory Standards Institute[52]. Mueller Hinton (MH) broth was used.

physchem = conditions: pH 7.4
Description: Three independent replicates of each compound were performed.

[3] = Pharmacokinetic assessment; assay type: in vivo, C57BL/6 mice
Description: (§1) The animal studies (PK, in-vivo toxicity and in-vivo efficacy) were carried out in strict accordance with the recommendations in the Guide for the Care and Use of Laboratory Animals of the National Institutes of Health. […] In these studies, 10- to 12-week-old female C57BL/6 mice purchased from Charles River were used. DNM, DNM-2 and DNM-3 were formulated as slurries at 8.3 mg ml^−1 in 25% Cremophor RH40/water (v/v). Before beginning the pharmacokinetic assessment, mice were first tested for their ability to tolerate the DNM, DNM-2 and DNM-3 at 50 mg kg^−1 (p.o.). […] At specified time points, mice were killed and blood was collected, centrifuged and the serum was frozen at −80 °C until analysis. The proteins in a 50-μl aliquot of serum were precipitated by the addition of 50 μl of acetonitrile and the sample was centrifuged to remove the proteins. Serum concentrations of DNM, DNM-2 and DNM-3 were determined by HPLC. PK parameters were determined using GraphPad Prism Version 5.00 for Windows.

[4] = Tolerability in mice (maximal tolerated dose); assay type: in vivo; conditions: increasing doses, highest dose evaluated 50 mg kg^−1 by oral gavage
Description: as §1

[5] = WT GyrA and WT ParC, three independent replicates
[6] = ATCC29213, ATCC 29213, WT GyrA and WT ParC, three independent replicates, read-out: MIC against S. aureus 29213
[7] = NRS3, S84L GyrA and S80F ParC, three independent replicates
[8] = NRS3, S84L GyrA and S80F ParC, three independent replicates, read-out: MIC against S. aureus NRS3
[9] = female, C57BL/6, mouse, in vivo, C57/BL6 mice, 50 mg kg-1 oral gavage, serum

## CCCc1cc(=O)n(C)c2c3c4c(cc12)c(C)cc(=O)n4CO3 [compound 7]
[1]; [5]
  MIC against S. aureus 29213: 16 µg/mL (≈ 51.6 µM)
[1]; [6]
  MIC: 16 µg/mL (≈ 51.6 µM)
[2]; [7]
  MIC against S. aureus NRS3: 1 µg/mL (≈ 3.22 µM)

## Cc1cc(=O)n(C)c2c3c4c(cc12)c(C)cc(=O)n4C(C)O3 (stereo not drawn) [compound 5]
[1]; [5]
  MIC against S. aureus 29213: 4 µg/mL (≈ 13.5 µM)
[1]; [6]
  MIC: 4 µg/mL (≈ 13.5 µM)

## CN[C@H](CC(C)C)C(=O)N[C@H]1C(=O)N[C@@H](CC(N)=O)C(=O)N[C@H]2C(=O)N[C@H]3C(=O)N[C@H](C(=O)N[C@H](C(=O)O)c4cc(O)cc(O)c4-c4cc3ccc4O)[C@H](O)c3ccc(c(Cl)c3)Oc3cc2cc(c3O[C@@H]2O[C@H](CO)[C@@H](O)[C@H](O)[C@H]2O[C@H]2C[C@](C)(N)[C@H](O)[C@H](C)O2)Oc2ccc(cc2Cl)[C@H]1O [vancomycin, reference compound]
[1]; ATCC29213, read-out: MIC against S. aureus 29213
  MIC: 1 µg/mL (≈ 0.69 µM)
MRSA clinical isolates; strain SAU.1118
  MIC: 2 µg/mL (≈ 1.38 µM)
MRSA clinical isolates; strain SAU.2996
  MIC: 1 µg/mL (≈ 0.69 µM)
MRSA clinical isolates; strain SAU.3017
  MIC: 1 µg/mL (≈ 0.69 µM)
MRSA clinical isolates; strain SAU.3021
  MIC: 1 µg/mL (≈ 0.69 µM)
MRSA clinical isolates; strain SAU.3024
  MIC: 2 µg/mL (≈ 1.38 µM)
MRSA clinical isolates; strain SAU.419
  MIC: 4 µg/mL (≈ 2.76 µM)
MRSA clinical isolates; strain SAU.42
  MIC: 1 µg/mL (≈ 0.69 µM)
MRSA clinical isolates; strain SAU.446
  MIC: 2 µg/mL (≈ 1.38 µM)
MRSA clinical isolates; strain SAU.555
  MIC: 1 µg/mL (≈ 0.69 µM)
MRSA clinical isolates; strain SAU.846
  MIC: 8 µg/mL (≈ 5.52 µM)
[2]; [7]
  MIC against S. aureus NRS3: 8 µg/mL (≈ 5.52 µM)
[2]; [8]
  MIC: 8 µg/mL (≈ 5.52 µM)

## CCCc1cc(=O)n2c3c(c4c(cc13)c(C)cc(=O)n4C)OC2 [compound 6]
[1]; [5]
  MIC against S. aureus 29213: 16 µg/mL (≈ 51.6 µM)
[1]; [6]
  MIC: 16 µg/mL (≈ 51.6 µM)
[2]; [7]
  MIC against S. aureus NRS3: 0.25 µg/mL (≈ 0.806 µM)

## CCCCCCn1c(=O)cc(C)c2cc3c(C)cc(=O)n4c3c(c21)OC4 [compound 10]
[1]; [5]
  MIC against S. aureus 29213: > 64 µg/mL
[1]; [6]
  MIC: > 64 µg/mL
[2]; [7]
  MIC against S. aureus NRS3: 1 µg/mL (≈ 2.84 µM)

## CCc1cc(=O)n2c3c(c4c(cc13)c(C)cc(=O)n4C)OC2 [DNM-3]
physchem
  solubility at 1 h: 27 µM (≈ 8 µg/mL)
[1]; [5]
  MIC against S. aureus 29213: 8 µg/mL (≈ 27 µM)
[1]; [6]
  MIC: 8 µg/mL (≈ 27 µM)
[3]; [9]
  AUC: 4000 ng·h/mL
  Tmax: 1.1 h
  half-life: 1.2 h
[3]; female, C57BL/6, mouse, mice, 50 mg kg^−1 oral dose, serum, read-out: Cmax (peak serum concentration)
  Cmax: 4.3 µM and 1260 ng/mL
[3]; mice, 50 mg kg^−1 oral dose
  oral bioavailability / serum exposure: intermediate level of bioavailability
[3]; mice, 50 mg kg^−1 oral dose, serum
  area under the curve: 4000 ng·h/mL
[4]
  tolerability: well tolerated up to the highest dose evaluated
[2]; [7]
  MIC against S. aureus NRS3: 0.12 µg/mL (≈ 0.405 µM)

## CCc1cc(=O)n(C)c2c3c4c(cc12)c(C)cc(=O)n4CO3 [compound 4]
physchem
  solubility at 1 h: 53 µM (≈ 15.7 µg/mL)
[1]; [5]
  MIC against S. aureus 29213: 8 µg/mL (≈ 27 µM)
[1]; [6]
  MIC: 8 µg/mL (≈ 27 µM)
[2]; [7]
  MIC against S. aureus NRS3: 0.25 µg/mL (≈ 0.844 µM)

## Cc1cc(=O)n2c3c(c4c(cc13)c(C)cc(=O)n4CC(C)C)OC2 [compound 11]
[1]; [5]
  MIC against S. aureus 29213: > 32 µg/mL
[1]; [6]
  MIC: > 32 µg/mL
[2]; [7]
  MIC against S. aureus NRS3: 2 µg/mL (≈ 6.17 µM)

## CC1(C)S[C@@H]2[C@H](NC(=O)[C@H](N)c3ccccc3)C(=O)N2[C@H]1C(=O)O [Amp, Ampicillin, reference compound]
MRSA clinical isolates; strain SAU.1118
  MIC: > 64 µg/mL
MRSA clinical isolates; strain SAU.3024
  MIC: > 64 µg/mL
MRSA clinical isolates; strain SAU.3025
  MIC: 64 µg/mL (≈ 183 µM)
MRSA clinical isolates; strain SAU.419
  MIC: > 64 µg/mL
MRSA clinical isolates; strain SAU.42
  MIC: 2 µg/mL (≈ 5.72 µM)
MRSA clinical isolates; strain SAU.446
  MIC: > 64 µg/mL
MRSA clinical isolates; strain SAU.447
  MIC: > 64 µg/mL
MRSA clinical isolates; strain SAU.555
  MIC: > 64 µg/mL

## CO[C@@H]1[C@@H](OC(N)=O)[C@@H](O)[C@H](Oc2ccc3c(O)c(NC(=O)c4ccc(O)c(CC=C(C)C)c4)c(=O)oc3c2C)OC1(C)C [Novo, Novobiocin, reference compound]
MRSA clinical isolates; strain SAU.1118
  MIC: 0.5 µg/mL (≈ 0.816 µM)
MRSA clinical isolates; strain SAU.3017
  MIC: 0.5 µg/mL (≈ 0.816 µM)
MRSA clinical isolates; strain SAU.3021
  MIC: 0.25 µg/mL (≈ 0.408 µM)
MRSA clinical isolates; strain SAU.419
  MIC: 0.25 µg/mL (≈ 0.408 µM)
MRSA clinical isolates; strain SAU.42
  MIC: 0.5 µg/mL (≈ 0.816 µM)
MRSA clinical isolates; strain SAU.447
  MIC: 0.25 µg/mL (≈ 0.408 µM)
MRSA clinical isolates; strain SAU.555
  MIC: 0.25 µg/mL (≈ 0.408 µM)
MRSA clinical isolates; strain SAU.846
  MIC: 0.125 µg/mL (≈ 0.204 µM)

## CCCCCn1c(=O)cc(C)c2cc3c(C)cc(=O)n4c3c(c21)OC4 [compound 9]
[1]; [5]
  MIC against S. aureus 29213: 32 µg/mL (≈ 94.6 µM)
[1]; [6]
  MIC: 32 µg/mL (≈ 94.6 µM)
[2]; [7]
  MIC against S. aureus NRS3: 0.25 µg/mL (≈ 0.739 µM)

## CC(=O)NC[C@H]1CN(c2ccc(N3CCOCC3)c(F)c2)C(=O)O1 [linezolid, reference compound]
[2]; [7]
  MIC against S. aureus NRS3: 0.5 µg/mL (≈ 1.48 µM)
[2]; [8]
  MIC: 0.5 µg/mL (≈ 1.48 µM)

## CCc1cc(=O)n(C)c2c3c4c(cc12)c(CC)cc(=O)n4CO3 [compound 13]
physchem
  solubility at 1 h: 48 ± 8 µM (≈ 14.9 µg/mL)
[1]; [5]
  MIC against S. aureus 29213: > 32 µg/mL
[1]; [6]
  MIC: > 32 µg/mL
[2]; [7]
  MIC against S. aureus NRS3: 16 µg/mL (≈ 51.6 µM)

## Cc1cc(=O)[nH]c2c(O)c3c(cc12)c(C)cc(=O)n3C [compound 1]
[1]; [6]
  MIC: 2 µg/mL (≈ 7.4 µM)
[2]; NRS3, read-out: MIC against S. aureus NRS3
  MIC: 4 µg/mL (≈ 14.8 µM)

## CCCCCCCCCC(=O)N[C@@H](Cc1c[nH]c2ccccc12)C(=O)N[C@H](CC(N)=O)C(=O)N[C@@H](CC(=O)O)C(=O)N[C@@H]1C(=O)NCC(=O)N[C@@H](CCCN)C(=O)N[C@@H](CC(=O)O)C(=O)N[C@H](C)C(=O)N[C@@H](CC(=O)O)C(=O)NCC(=O)N[C@H](CO)C(=O)N[C@@H]([C@H](C)CC(=O)O)C(=O)N[C@@H](CC(=O)c2ccccc2N)C(=O)O[C@@H]1C [daptomycin, reference compound]
[1]; [6]
  MIC: 2 µg/mL (≈ 1.23 µM)
[2]; [7]
  MIC against S. aureus NRS3: 8 µg/mL (≈ 4.94 µM)
[2]; [8]
  MIC: 8 µg/mL (≈ 4.94 µM)

## CCCCn1c(=O)cc(CCC)c2cc3c(CCC)cc(=O)n4c3c(c21)OC4 [compound 15]
[1]; [5]
  MIC against S. aureus 29213: > 32 µg/mL
[1]; [6]
  MIC: > 32 µg/mL
[2]; [7]
  MIC against S. aureus NRS3: 32 µg/mL (≈ 84.1 µM)

## Cc1cc(=O)n2c3c(c4c(cc13)c(C)cc(=O)n4CC(C)(C)C)OC2 [compound 12]
[1]; [5]
  MIC against S. aureus 29213: 32 µg/mL (≈ 94.6 µM)
[1]; [6]
  MIC: 32 µg/mL (≈ 94.6 µM)
[2]; [7]
  MIC against S. aureus NRS3: 16 µg/mL (≈ 47.3 µM)

Source: article PMC4421842 (Nature Communications, 2015)
